Reference: US4345069A, “Deformyltylosin derivatives” (Toyo Jozo Kabushiki Kaisha, priority 1979, dated 1982)
Converted amounts (≈) assume the structure as drawn. Like-named read-outs stand apart in the source and are kept apart here.

What was measured:
Assay in all cases: Minimum inhibitory concentration
Format in all cases: cell-based
[1] = system: Staphylococcus aureus ATCC 6538p; conditions: ATCC6538P
[2] = system: Staphylococcus aureus MS353
[3] = system: Staphylococcus aureus MS353 C36; conditions: MS353C36, read-out: Minimum Inhibitory Concentration
Text: (§1) Minimum Inhibitory Concentration (μg/ml)
*erythromycin resistant strain

[4] = system: Staphylococcus aureus 0126
Text: as §1
**erythromycin and oreandomycin resistant strain.

[5] = system: Streptococcus pyogenes N.Y.5
[6] = Staphylococcus aureus 0126, erythromycin and oreandomycin resistant strain, read-out: Minimum Inhibitory Concentration
[7] = Staphylococcus aureus, 0126, read-out: Minimum Inhibitory Concentration

Compound | MIC [1] [mg/L] | MIC [2] [mg/L] | MIC [3] [mg/L] | MIC [4, 6] [mg/L] | MIC [5] [mg/L] | MIC [4, 7] [mg/L]
CCC1OC(=O)C=CC(C)C(OC2OC(C)C(O)C(N(C)C)C2O)C(C)CC(C)C(=O)C=CC(C)=CC1COC1OC(C)C(O)C(OC)C1OC (stereo not drawn) [19-deformyl-2,3-didehydro-3-dehydroxy-4'-demycarosyltylosin] | 0.2 (≈ 0.276 µM) | 0.2 (≈ 0.276 µM) | 0.4 (≈ 0.551 µM) | 1.6 (≈ 2.2 µM) | 0.2 (≈ 0.276 µM) | 
CCC1OC(=O)CC(OC(=O)Cc2ccccc2)C(C)C(OC2OC(C)C(O)C(N(C)C)C2O)C(C)CC(C)C(=O)C=CC(C)=CC1COC1OC(C)C(O)C(OC)C1OC (stereo not drawn) [19-deformyl-4'-demycarosyl-3-phenylacetyltylosin] | 0.2 (≈ 0.232 µM) | 0.2 (≈ 0.232 µM) | 0.1 (≈ 0.116 µM) |  | ≤ 0.05 | 0.4 (≈ 0.464 µM)
CCC1OC(=O)CC(O)C(C)C(OC2OC(C)C(O)C(N(C)C)C2O)C(C)CC(C)C(=O)C=CC(C)=CC1COC1OC(C)C(O)C(OC)C1OC (stereo not drawn) [19-deformyl-4'-demycarosyltylosin] | 0.2 (≈ 0.269 µM) | 0.2 (≈ 0.269 µM) | 0.2 (≈ 0.269 µM) | 0.8 (≈ 1.08 µM) | 0.1 (≈ 0.134 µM) | 
CCC1OC(=O)CC(O)C(C)C(OC2OC(C)C(OC3CC(C)(O)C(O)C(C)O3)C(N(C)C)C2O)C(C)CC(C)C(=O)C=CC(C)=CC1COC1OC(C)C(O)C(OC)C1OC (stereo not drawn) [19-deformyltylosin] | 1.6 (≈ 1.8 µM) | 1.6 (≈ 1.8 µM) | 0.8 (≈ 0.901 µM) |  | 1.6 (≈ 1.8 µM) | 
CCC1CC(C)C(=O)C=CC(C)=CC(COC2OC(C)C(O)C(OC)C2OC)C(CC)OC(=O)CC(O)C(C)C1OC1OC(C)C(O)C(N(C)C)C1O (stereo not drawn) [20-deoxo-4'-demycarosyltylosin] | 0.2 (≈ 0.264 µM) | 0.2 (≈ 0.264 µM) | 0.1 (≈ 0.132 µM) |  | 0.2 (≈ 0.264 µM) | 
CC[C@H]1OC(=O)[C@H](C)[C@@H](O[C@H]2C[C@@](C)(OC)[C@@H](O)[C@H](C)O2)[C@H](C)[C@@H](O[C@@H]2O[C@H](C)C[C@H](N(C)C)[C@H]2O)[C@](C)(O)C[C@@H](C)C(=O)[C@H](C)[C@@H](O)[C@]1(C)O [erythromycin, reference compound] | 0.2 (≈ 0.273 µM) | 0.2 (≈ 0.273 µM) | > 100 |  | ≤ 0.05 | > 100
CC[C@H]1OC(=O)C[C@@H](O)[C@H](C)[C@@H](O[C@@H]2O[C@H](C)[C@@H](O[C@H]3C[C@@](C)(O)[C@@H](O)[C@H](C)O3)[C@H](N(C)C)[C@H]2O)[C@@H](CC=O)C[C@@H](C)C(=O)/C=C/C(C)=C/[C@@H]1CO[C@@H]1O[C@H](C)[C@@H](O)[C@@H](OC)[C@H]1OC [tylosin] | 1.6 (≈ 1.75 µM) | 3.1 (≈ 3.38 µM) | 1.6 (≈ 1.75 µM) |  | 0.4 (≈ 0.437 µM) | 1.6 (≈ 1.75 µM)
